Key:
[1] = target: T1, rhodopsin (isorhodopsin) dimerization (Homo sapiens, UniProt P08100); assay: rhodopsin dimerization BRET assay in HEK293 opsin-Rluc/opsin-Venus cells; type: cell-based; set-up: expressed in transfected cells; host or cells: HEK293 (human embryonic kidney 293) opsin-Rluc / opsin-Venus cell lines; conditions: HEK293 opsin-Rluc/opsin-Venus cells regenerated with 9-cis-retinal; triplicates; read from Fig. 3B,E
Text: (§1) To identify small molecules that target rhodopsin dimerization, a cell-based high-throughput screening (HTS) assay was used to screen a diverse library of 50,000 compounds from Life Chemicals. The human osteosarcoma (U2OS) stable cell line was used, which expresses opsin fused with complimentary subunits of β-galactosidase (β-gal), namely, the enzyme acceptor large β-gal subunit (EA) and the enzyme donor, small subunit of β-gal (PK). Upon rhodopsin self-association in vitro, a competent β-gal was formed and chemiluminescent signal was generated in the presence of β-gal substrate (Fig. 1A). For further validation, the β-gal activity assay was used to counter-screen and rule out false positives, affecting the activity of β-gal without affecting rhodopsin (Fig. 1B) ([34]). In an orthogonal assay, rhodopsin dimerization was assessed using a bioluminescence resonance energy transfer (BRET) assay with human embryonic kidney 293 cells expressing opsin fused with Renilla luciferase and opsin fused with Venus (Fig. 1C) ([35], [36]). To form functional visual pigment, opsin-fused proteins were regenerated with 9-cis-retinal to form so-called isorhodopsin ([37]). We chose 9-cis-retinal over photoreceptor-endogenous 11-cis-retinal because of its availability and the prohibitive cost for HTS assays with the native chromophore. Rhodopsin and isorhodopsin have similar biochemical and spectral properties (see ([38])).
Identified hits from the β-gal complementation assay were subjected to the previously developed BRET assay, using human embryonic kidney 293 opsin–Renilla luciferase and opsin-Venus cell lines ([37]). Cultured cells were diluted to 2 × 10^5 cells/ml in the medium containing 10% fetal bovine serum (Thermo Fisher Scientific) and 1% penicillin-streptomycin (10,000 U/ml; Thermo Fisher Scientific), and 20 μl/well of the cell diluent was dispensed into a white ViewPlate-384 (PerkinElmer). Cells were cultured overnight at 37 °C in 5% CO2, and under a dim red light, cells were treated with 9-cis-retinal at 7.5 μM final concentration. The next day, cells were treated with the identified hit compounds from the β-gal complementation assay at 180 μM down to 2.4 nM concentrations, and 1 μM final concentration of TM5 peptide ([…]-NH2; EZBiolab) serving as the control. On the following day, the culture medium was aspirated and replaced with 90 μl/well of PBS containing pivaloyloxymethyl acetoxycoelenterazine h (Dalton Research Molecules) at 600 μM concentration followed by incubation at 20 °C for 40 min ([35]). Dual luminescence readings at 480 and 530 nm were performed using a SpectraMax L plate reader with the BRET1 filter set (Molecular Devices).

[2] = target: T1, rhodopsin (isorhodopsin) dimerization; assay: rhodopsin β-gal fragment complementation assay in U2OS opsin-EA/opsin-PK cells; type: cell-based; set-up: expressed in transfected cells; conditions: U2OS opsin-EA/PK cells regenerated with 9-cis-retinal; triplicates; read from Fig. 3A,D
Text: as §1
All 50,000 compounds were screened, using the β-gal complementation assay at a final concentration of 60 μM with a Z′ factor of 0.75 ± 0.01 and a signal-to-background (S/B) ratio of 123 ± 14.4 (Fig. 2A) ([39]). The activity scores were calculated according to the following equation: (RLU(compound)−RLU(positivecontrol))/(RLU(negativecontrol)−RLU(positivecontrol))×100.
The positive control comprised U2OS cells transfected with both opsin-EA and opsin-PK, mimicking dimer formation (with a 0% score value), and the negative control comprised U2OS cells transfected with opsin-EA only, mimicking disrupted dimer formation (with a 100% score value).
In this study, cultured U2OS opsin-EA and opsin-PK cells were diluted to 2 × 10^5 cells/ml in the culture medium containing 10% fetal bovine serum (Thermo Fisher Scientific) and 1% penicillin-streptomycin 10,000 U/ml (Thermo Fisher Scientific). Cell diluent of 20 μl/well was dispensed into a white ViewPlate-384 (PerkinElmer) using the EL406 plate dispenser (BioTek). As a control, we used U2OS opsin-EA–only expressing cells as a positive control for dimerization disruption generating a minimal luminescence signal, as previously described ([41]). The plates were cultured overnight at 37 °C in 5% CO2, and the next day, under a dim red light, cells were treated with 5 μl/well of 9-cis-retinal (Sigma-Aldrich) at 7.5 μM final concentration. Plates were covered with aluminum foil and cultured overnight at 37 °C in 5% CO2. Next, cells were treated with each of the 50,000 library compounds (Life Chemicals Inc) at a final concentration of 57.6 μM, using a JANUS automated workstation (PerkinElmer), followed by incubation overnight at 37 °C, covered with aluminum foil. The next day, cells were treated with Galacton-Star chemiluminescent substrate (23 μl/well; Thermo Fisher Scientific). The plates were covered with foil and incubated at 20 °C for 2 h, followed by luminescence reading with the EnSpire multimode plate reader (PerkinElmer). Measurements were evaluated with the lowest value being defined as −50% (dimer enhancers) and the highest value as 100% (dimer disrupters) in the compound dataset. All experiments were done under red-light conditions. Identified compounds were retested in triplicates ranging from 180 μM down to 2.4 nM concentrations.

T1 sequence (P08100 whole entry, the tested form may be a part): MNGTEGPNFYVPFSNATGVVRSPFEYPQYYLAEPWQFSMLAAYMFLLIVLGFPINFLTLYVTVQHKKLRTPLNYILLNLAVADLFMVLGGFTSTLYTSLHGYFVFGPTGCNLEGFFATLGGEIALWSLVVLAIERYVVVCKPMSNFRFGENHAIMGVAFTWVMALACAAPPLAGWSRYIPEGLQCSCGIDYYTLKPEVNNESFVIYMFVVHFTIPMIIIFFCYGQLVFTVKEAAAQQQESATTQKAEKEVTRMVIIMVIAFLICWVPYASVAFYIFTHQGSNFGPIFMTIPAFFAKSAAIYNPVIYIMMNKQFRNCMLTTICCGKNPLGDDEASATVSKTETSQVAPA

EC50 [1]: 2340 nM | EC50 [2]: 2300 nM
Compound: O=C(CSc1nnc(NC(=O)Cc2ccc(F)cc2)s1)NO [#1]

Source: article PMC8665362, “Identification of small-molecule allosteric modulators that act as enhancers/disrupters of rhodopsin oligomerization” (The Journal of Biological Chemistry, 2021)
